Test results reported in ChEMBL document CHEMBL1138175, “Novel 1alpha,25-dihydroxyvitamin D3 analogues with the side chain at C12” (J Med Chem, 2006).

Tests used:
[1] = molecular target: T1, Vitamin D3 receptor (Homo sapiens) (UniProt P11473); experiment: Effect on Gal4 DBD-hVDRdelta LBD construct transactivation in COS7 cells at 10(-7) M; type: functional, cell-based; settings: COS-7
T1 sequence (whole entry): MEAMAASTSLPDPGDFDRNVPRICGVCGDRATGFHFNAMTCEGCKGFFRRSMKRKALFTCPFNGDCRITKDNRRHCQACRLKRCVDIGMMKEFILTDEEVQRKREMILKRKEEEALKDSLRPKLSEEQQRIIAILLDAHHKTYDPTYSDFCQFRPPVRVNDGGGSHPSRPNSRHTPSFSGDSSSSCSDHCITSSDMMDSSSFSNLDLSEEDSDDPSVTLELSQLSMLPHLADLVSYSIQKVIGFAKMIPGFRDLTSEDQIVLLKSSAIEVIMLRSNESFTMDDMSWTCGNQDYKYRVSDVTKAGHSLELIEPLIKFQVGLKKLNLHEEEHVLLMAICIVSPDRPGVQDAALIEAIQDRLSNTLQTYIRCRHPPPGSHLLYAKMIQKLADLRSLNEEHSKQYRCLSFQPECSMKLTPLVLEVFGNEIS

[2] = molecular target: T1, Vitamin D3 receptor (Homo sapiens); experiment: Effect on Gal4 DBD-hVDRdelta LBD construct transactivation in COS7 cells at 10(-5) M; type: functional, cell-based; settings: COS-7

Row | Structure (SMILES) | Activity [1] [%] | Activity [2] [%]
1 | C=C1/C(=C\C=C2/CC[C@@H](CCCCCC(C)(C)O)[C@]3(C)CCC[C@@H]23)C[C@@H](O)C[C@@H]1O | 8 | –
2 | C=C1/C(=C\C=C2/CC[C@@H](CCCCCCCC(C)(C)O)[C@]3(C)CCC[C@@H]23)C[C@@H](O)C[C@@H]1O | 6 | –
3 | C=C1/C(=C\C=C2/CC[C@@H](CCCCCCC(C)(C)O)[C@]3(C)CCC[C@@H]23)C[C@@H](O)C[C@@H]1O | 20 | 100
